Test results from US20050267120A1 (Boehringer Ingelheim International GmbH, priority 2004, published 2005).

How the values were obtained:
[1] = target: T1, hMCH-1R (Homo sapiens, UniProt Q99705); assay: MCH-1 receptor binding test; details: 125I-MCH binding, membranes of CHO/Galpha16 cells stably transfected with hMCH-1R
T1 construct: expressed in transfected cells; host or cells: CHO/Galpha16 cells (membrane preparation)
Description: 200 μL of this membrane fraction (contains 1 to 3 μg of protein) are incubated for 60 minutes at ambient temperature with 100 pM of ^125I-tyrosyl melanin concentrating hormone (^125I-MCH commercially obtainable from NEN) and increasing concentrations of the test compound in a final volume of 250 μL. After the incubation the reaction is filtered using a cell harvester through 0.5% PEI treated fiberglass filters (GF/B, Unifilter Packard). The membrane-bound radioactivity retained on the filter is then determined after the addition of scintillator substance (Packard Microscint 20) in a measuring device (TopCount of Packard). […] The analysis of the concentration binding curve is carried out on the assumption of one receptor binding site.

[2] = long term trials; cited from earlier work
[3] = tested on: rats; details: cited from earlier work

T1 sequence (Q99705 whole entry): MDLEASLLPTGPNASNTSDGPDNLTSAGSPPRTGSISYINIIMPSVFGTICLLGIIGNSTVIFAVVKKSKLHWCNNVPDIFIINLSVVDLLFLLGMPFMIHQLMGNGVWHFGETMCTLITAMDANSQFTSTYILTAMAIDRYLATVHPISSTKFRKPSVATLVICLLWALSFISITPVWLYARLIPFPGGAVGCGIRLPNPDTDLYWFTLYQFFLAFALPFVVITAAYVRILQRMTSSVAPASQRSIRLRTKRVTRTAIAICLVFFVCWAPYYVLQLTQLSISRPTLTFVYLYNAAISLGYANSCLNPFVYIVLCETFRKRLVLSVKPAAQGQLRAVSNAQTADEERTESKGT

| IC50 [1] | SMILES | body weight change [2] | effects in behavioral experiments [3] |
| --- | --- | --- | --- |
| 6 nM | OC[C@@H]1CCCN1CC1CCc2cc(C#Cc3ccc(-c4ccc(Cl)cc4)cn3)ccc2O1 (stereo partly shown) [Example 1.1] |  |  |
| 3 nM | CC1CCN(Cc2cc(=O)c3cc(C#Cc4ccc(-c5ccc(Cl)cc5)cn4)ccc3o2)CC1 [Example 2.1, 6-[5-(4-chlorophenyl)pyridin-2-ylethynyl]-2-(4-methylpiperidin-1-ylmethyl)-1-benzopyran-4-one] |  |  |
|  | COCC1=C(C(=O)OC)[C@H](c2ccc(F)c(F)c2)N(C(=O)NCCCN2CCC(c3cccc(NC(C)=O)c3)CC2)C(=O)N1 [SNAP-7941] | lose significant amounts of weight | anxiolytic and antidepressant effects |
